How the values were obtained:
[1] = test system: secretion of interferon-beta from THP1 cells; assay: IFN-β secretion in THP1 cell culture (5 h); format: cell-based; conditions: Homo sapiens, THP-1, 5 h, compound at 30 μM, 30 uM cGAMP = 100%, read-out: % Effect at 30 μM relative to 2′3′-cGAMP
Description: The ability of compounds to stimulate the secretion of interferon-beta from THP1 cells was measured using a human IFN-β AlphaLISA kit (Perkin Elmer, Cat. No. AL265F). The basic protocol is as follows:
A Labcyte Echo 550 acoustic dispenser was used to transfer 120 nL of compound dissolved in DMSO into the wells of an empty, sterile 384-well microplate, (Corning, Cat. No. 3712). THP1 cells (American Type Culture Collection, Cat. No. TIB202) previously frozen in Recovery Medium (Life Technologies, Cat. No. 12648-010) were thawed and immediately diluted 10-fold into 37° C. assay medium (RPMI 1640+L-Glutamine & phenol red, Life Technologies, Cat. No. 11875-085; 0.5% heat inactivated fetal bovine serum, Sigma Aldrich, Cat. No. F4135; 1 mM Sodium Pyruvate, Life Technologies, Cat. No. 11360-070; 1× non-essential amino acids; Life Technologies, Cat. No. 11140-050). The cell viability and count was ascertained using a Beckman Coulter V-Cell XR cell counter. The cells suspension was centrifuged at 200×g for 5 min at RT. Cells were resuspended to a density of 0.8×10^6/mL in 37° C. assay medium. Subsequent liquid transfers were performed using either a Matrix electronic multichannel pipette or an Agilent Bravo Automated Liquid Handling Platform.
The assay was started by dispensing 40 μL of the previously prepared cell suspension into the wells of the plate containing compounds. After 5 h incubation at 37° C., 5% CO2 in a humidified atmosphere, the plate of cells and compounds was centrifuged at 200×g for 5 min at RT. From each well, 5 μL of supernatant was transferred into corresponding wells of a white 384-well plate (Perkin Elmer, Cat. No. 6005620). To these supernatant-containing wells was added 10 μL of 5× Anti-Analyte Acceptor beads (50 μg/mL of AlphaLISA HiBlock Buffer) and incubated for 30 min at RT while shaking on an orbital plate shaker. To each well was added 10 μL of 5× Biotinylated Antibody Anti-analyte (5 nM in AlphaLISA HiBlock Buffer) and incubated on an orbital plate shaker for 60 min at RT or overnight at 4° C. To each well was added 25 μL of 2× SA-Donor beads (80 μg/mL in AlphaLISA HiBlock Buffer) and incubated for 30-45 min at RT in the dark while shaking on an orbital plate shaker. The plate was then read on a Perkin Elmer Envision (λex=680 nm, […]). The percent effect of the AlphaLISA signal at each compound concentration was calculated based on 30 uM cGAMP positive controls and 0.3% DMSO negative controls. The plot of percent effect versus the log of compound concentration was fit with a 4-parameter concentration response equation to calculate EC50 values. The test compounds were tested at concentrations 30000, 10000, 3333, 1111, 370.4, 123.4, 41.2, 13.7, 4.6, and 1.5 nM with 0.3% residual DMSO. The control compound, cGAMP was tested at concentrations 100000, 33333, 11111, 3704, 1235, 412, 137, 46, and 15 nM with 0.3% residual DMSO.
Compounds of the disclosure were evaluated for IFN-β secretion in THP1 cell culture as described above. The following table tabulates the biological data for these compounds as percent activation relative to 2′3′-cGAMP at the 30 µM concentration.

full-length WT STING = biological target: T1, full-length WT STING (Homo sapiens, UniProt Q86WV6, H232R); assay: 3H-cGAMP filtration binding assay (WT STING); conditions: for EC50: competition with tritiated cGAMP, WT STING membrane
T1 construct: AviTag (after gg linker) (C); HRV3C cleavage site (after gs linker) (C); HIS8 (C); made in house; host or cells: Trichoplusia ni (Hi-Five) insect cells infected with baculovirus (virus generated and amplified in Sf21 cells); used as a washed membrane preparation
T1 sequence (Q86WV6 with tags, fused parts or gaps H232R): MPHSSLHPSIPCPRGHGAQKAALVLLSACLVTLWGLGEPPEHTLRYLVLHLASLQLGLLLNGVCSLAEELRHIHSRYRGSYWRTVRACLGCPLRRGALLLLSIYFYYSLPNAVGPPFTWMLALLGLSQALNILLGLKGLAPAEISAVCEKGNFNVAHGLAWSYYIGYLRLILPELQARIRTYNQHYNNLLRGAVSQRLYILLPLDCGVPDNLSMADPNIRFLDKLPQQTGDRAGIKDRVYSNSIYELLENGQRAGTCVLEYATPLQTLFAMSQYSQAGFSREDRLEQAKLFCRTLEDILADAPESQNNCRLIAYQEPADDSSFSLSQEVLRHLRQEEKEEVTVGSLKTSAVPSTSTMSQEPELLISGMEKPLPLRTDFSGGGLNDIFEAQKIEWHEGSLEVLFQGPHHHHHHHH
Description: (§1) The ability of compounds to bind STING is quantified by their ability to compete with tritiated cGAMP ligand for human STING receptor membrane using a radioactive filter-binding assay. The binding assay employs STING receptor obtained from Trichoplusia ni cell membranes (T. ni; Expression Systems, cat #94-002F, www.expressionsystems.com) overexpressing full-length WT STING and tritiated cGAMP ligand.
The basic WT STING filtration assay protocol is as follows:
16 nM of [^3H] c-GAMP ligand was prepared by diluting into assay buffer, and 50 uL of this working stock was manually added to each well of the assay plate. After ligand addition, 2 uL of either titrated test compound, DMSO control (Sigma #276855), or cold cGAMP control was added to the appropriate wells using a BIOMEK FX. The serially titrated compound was prepared on a Hamilton STARPlus CORE in a 96-well plate (Greiner, #651201) using a 1:3 ten-point dose response format. Following compound addition, a 2.2 ug/ml working concentration of STING membrane (SEQ. ID. No. 3) was prepared by diluting concentrated membrane into assay buffer (1×PBS; Invitrogen # SH30028.02) and douncing 7× using a manual tissue homogenizer (Wheaton, #357546). 148 uL of this prepared membrane was then manually added to each well of a 96-well deep-well polypropylene plate (Fisher Scientific, #12-566-121). Compound, ligand, and membrane then incubated for 60 min at RT before the contents of each assay plate were filtered through a 96-well GF/B filter plate (PerkinElmer, #6005250) using a TOMTEC MACH III Cell Harvester equipped with 20 mM HEPES buffer (Fisher Scientific, # BP299500). The filter plates were then dried at 55° C. for 30 min using a pressurized VWR oven before 30 uL of ULTIMA GOLD F scintillate was added to each well. Tritium levels for each reaction well were then measured using a PerkinElmer TopCount plate reader.
(§2) After normalization to controls, the percent activity for each compound concentration was calculated by measuring the amount of remaining radioactivity. The plot of percent activity versus the log of compound concentration was fit with a 4-parameter dose response equation to calculate EC50 values.

full-length HAQ STING = biological target: T2, full-length HAQ STING (Homo sapiens, UniProt Q86WV6, G230A/H232R/R293Q/R71H); assay: 3H-cGAMP filtration binding assay (HAQ STING); conditions: competition with tritiated cGAMP, HAQ STING membrane
T2 construct: AviTag (after GG linker) (C); HRV3C cleavage site (after GS linker) (C); HIS8 (C); made in house; host or cells: Trichoplusia ni (Hi-Five) insect cells infected with baculovirus (virus generated and amplified in Sf21 cells); used as a washed membrane preparation
T2 sequence (Q86WV6 with tags, fused parts or gaps R71H/G230A/H232R/R293Q): as the sequence (Q86WV6 with tags, fused parts or gaps H232R) above, with R71H, G230A, R293Q counted along it
Source text: The ability of compounds to bind STING is quantified by the ability to compete with tritiated cGAMP ligand for human STING receptor membrane using a radioactive filter-binding assay. The binding assay employs STING receptor obtained from Hi-Five cell membranes overexpressing full-length HAQ STING prepared in-house and tritiated cGAMP ligand also purified in-house.
as §1, with “HAQ” for “WT”
The basic HAQ STING filtration assay protocol is as follows:
The compounds were serially titrated by the Hamilton STARPlus CORE in a 96-well plate (Greiner, #651201) using a 1:3 ten-point dose response format. After compound preparation, a 2.2 ug/ml working concentration of STING membrane (SEQ. ID. No. 1) was prepared by diluting concentrated membrane into assay buffer (1×PBS; Invitrogen # SH30028.02) and douncing 7× using a manual tissue homogenizer (Wheaton, #357546). 148 uL of prepared membrane was then manually added to each well of a 96-well deep-well polypropylene plate (Fisher Scientific, #12-566-121). Following membrane addition, 2 uL of either titrated test compound, DMSO control (Sigma #276855), or cold cGAMP control was added to the appropriate wells using a BIOMEK FX. Compound and membrane then preincubated for 60 min at RT to allow compound binding to equilibrate. Following equilibration, 8 nM of [^3H]c-GAMP ligand was prepared by diluting into assay buffer, and 50 uL of this working stock was then manually added to each well of the assay plate. Plates were then incubated at RT for 60 min, and the contents of each assay plate were then filtered through a 96-well GF/B filter plate (PerkinElmer, #6005250) using a TOMTEC MACH III Cell Harvester equipped with 20 mM HEPES buffer (Fisher Scientific, # BP299500). The filter plates were then dried at 55° C. for 30 min using a pressurized oven before 30 uL of ULTIMA GOLD F scintillate was added to each well. Tritium levels for each reaction well were then measured using a PerkinElmer TopCount plate reader.
as §2

Row | Structure (SMILES) | activation at 30 µM [1] | EC50 (full-length WT STING) | EC50 (full-length HAQ STING) | inhibition at 20 µM (full-length WT STING; at 20,000 nM compound)
1 | COc1cc2sc(CCC(C)(C)C(=O)O)cc2c(F)c1OCCCOc1c(OC)cc2sc(C(=O)[C@@H]3CC[C@H]3C(=O)O)cc2c1F (relative stereo) [Example 141, trans-2-(5-(3-((2-(3-carboxy-3-methylbutyl)-4-fluoro-6-methoxybenzo[b]thiophen-5-yl)oxy)propoxy)-4-fluoro-6-methoxybenzo[b]thiophene-2-carbonyl)cyclobutane-1-carboxylic acid] | 143% | 219 nM | 24 nM | –
2 | COc1cc2sc(C(=O)C[C@H](C)C(=O)O)cc2c(F)c1OCCCOc1cc2sc(C(=O)[C@@H]3CC[C@H]3C(=O)O)cc2c(F)c1OC (single isomer, unassigned) [Example 96] | 43% | 628 nM | 18 nM | –
3 | COc1cc2sc(C(=O)CCC(=O)O)cc2c(F)c1OCCCCCOc1c(OC)cc2sc(C(=O)[C@@H]3CC[C@H]3C(=O)O)cc2c1F (stereo in doubt) [Example 119, 2-(5-((5-((2-(3-carboxypropanoyl)-4-fluoro-6-methoxybenzo[b]thiophen-5-yl)oxy)pentyl)oxy)-4-fluoro-6-methoxybenzo[b]thiophene-2-carbonyl)cyclo-butanecarboxylic acid] | 13% | – | 1800 nM | 32%
4 | COc1cc2sc(C(=O)C[C@H](C)C(=O)O)cc2cc1CCCCc1cc2cc(C(=O)C[C@H](C)C(=O)O)sc2cc1OC [Example 1, (2S,2′S)-4,4′-[butane-1,4-diylbis(6-methoxy-1-benzothiene-5,2-diyl)]bis(2-methyl-4-oxobutanoic acid)] | 26% | 117 nM | 6 nM | –
5 | COc1cc2sc(C(=O)C[C@H](C)C(=O)O)cc2cc1CCCc1cc2cc(C(=O)C[C@H](C)C(=O)O)sc2cc1OC [Example 2, (2S,2′S)-4,4′-[propane-1,3-diylbis(6-methoxy-1-benzothiene-5,2-diyl)]bis(2-methyl-4-oxobutanoic acid)] | 192% | 14 nM | 7 nM | –
6 | COc1cc2sc(C(=O)CCC(=O)O)cc2cc1CCCOc1nc2cc(C(=O)C[C@H](C)C(=O)O)sc2cc1OC [Example 3, (S)-4-(5-(3-(2-(3-carboxypropanoyl)-6-methoxybenzo[b]thiophen-5-yl)propoxy)-6-methoxythieno[3,2-b]pyridin-2-yl)-2-methyl-4-oxobutanoic acid] | 151% | 273 nM | 114 nM | –
7 | COc1cc2sc(C(=O)CCC(=O)O)cc2nc1OCCCc1ccc2sc(C(=O)CCC(=O)O)cc2c1 [Example 4, 4-(5-(3-((2-(3-carboxypropanoyl)-6-methoxythieno [3,2-b]pyridin-5-yl)oxy)propyl)benzo[b]thiophen-2-yl)-4-oxobutanoic acid] | 93% | 33 nM | 6 nM | –
8 | COc1cc2sc(C(=O)CCC(=O)O)cc2cc1CCCOc1cc2nc(C(=O)CCC(=O)O)sc2cc1OC [Example 5, 4-(5-(3-(2-(3-carboxypropanoyl)-6-methoxybenzo [b]thiophen-5-yl)propoxy)-6-methoxybenzo[d]thiazol-2-yl)-4-oxobutanoic acid] | 96% | 381 nM | 84 nM | –
9 | COc1cc2sc(C(=O)CCC(=O)O)cc2cc1OCCCc1ccc2sc(C(=O)CCC(=O)O)cc2c1 [Example 6, 4-(5-(3-((2-(3-carboxypropanoyl)-6-methoxybenzo [b]thiophen-5-yl)oxy)propyl)benzo[b]thiophen-2-yl)-4-oxobutanoic acid] | 106% | 206 nM | 53 nM | –
10 | COc1cc2sc(C(=O)CCC(=O)O)cc2cc1OCCc1nc2cc(C(=O)CCC(=O)O)sc2cc1OC [Example 7, 4-(5-(2-((2-(3-carboxypropanoyl)-6-methoxybenzo [b]thiophen-5-yl)oxy)ethyl)-6-methoxythieno[3,2-b]pyridin-2-yl)-4-oxobutanoic acid] | 97% | 71 nM | 17 nM | –

Reference: patent publication US10793557B2, “Sting agonist compounds” (Merck Sharp & Dohme Corp., priority 2018, dated 2020)
